{"source": "patent US12030904B2", "about": "(priority 2020, dated 2024)", "key": {"MT4 cytotoxicity (CC50)": {"assay": "MT4 cytotoxicity (CC50)", "settings": "human, MT4 cells"}, "[1]": {"test_system": "Recombinant Respiratory Syncytial virus strain A2 containing the firefly luciferase reporter (RSV-Fluc)", "assay": "microbe, parasite or virus in culture", "assay_type": "cell-based", "settings": "human respiratory syncytial virus, NHBE"}, "SARS-CoV-2": {"test_system": "SARS-CoV-2", "assay": "microbe, parasite or virus in culture", "assay_type": "cell-based", "settings": "Severe acute respiratory syndrome coronavirus 2, read-out: SARS EC50"}, "[2]": {"settings": "72 h, read-out: RSV-Fluc EC50 (NHBE), NHBE cells, three days, Table 2"}}, "note": "Where two headings read alike, the source gives them in different places.", "data": [{"smiles": "CCCCCCCCCCCCCCCCCCOC[C@H](COP(=O)(O)OC[C@H]1O[C@@](C#N)(c2ccc3c(N)ncnn23)[C@H](O)[C@@H]1O)OCc1ccc(C(F)F)cc1", "note": "[Example 33, ((2R,3S,4R,5R)-5-(4-aminopyrrolo[2,1-f][1,2,4]triazin-7-yl)-5-cyano-3,4-dihydroxytetrahydrofuran-2-yl)methyl ((R)-2-((4-(difluoromethyl)benzyl)oxy)-3-(octadecyloxy)propyl) hydrogen phosphate]", "values": [{"measurement": "CC50", "setting": "MT4 cytotoxicity (CC50); MT4 CC50, Table 2a", "result": 8850, "unit": "nM"}, {"measurement": "EC50", "setting": "[1]; read-out: RSV EC50, Table 2a", "result": 77, "unit": "nM"}, {"measurement": "EC50", "setting": "SARS-CoV-2", "result": 3020, "unit": "nM"}]}, {"smiles": "CCCCCCCCCCCCCCCCOC[C@H](COP(=O)(O)OC[C@H]1O[C@@](C#N)(c2ccc3c(N)ncnn23)[C@H](O)[C@@H]1O)OCCCCCCCCCCCCCCCC", "note": "[Example 61, ((2R,3S,4R,5R)-5-(4-Aminopyrrolo[2,1-f][1,2,4]triazin-7-yl)-5-cyano-3,4-dihydroxytetrahydrofuran-2-yl)methyl ((R)-2,3-bis(hexadecyloxy)propyl) hydrogen phosphate]", "values": [{"measurement": "CC50", "setting": "MT4 cytotoxicity (CC50); MT4 CC50, Table 2a", "result": 50000, "unit": "nM"}, {"measurement": "EC50", "setting": "[1]; [2]", "result": 4500, "unit": "nM"}, {"measurement": "EC50", "setting": "[1]; read-out: RSV EC50, Table 2a", "result": 4540, "unit": "nM"}, {"measurement": "EC50", "setting": "SARS-CoV-2", "result": 10000, "unit": "nM"}]}, {"smiles": "CCCCCCCCCCCCCCOC[C@H](COP(=O)(O)OC[C@H]1O[C@@](C#N)(c2ccc3c(N)ncnn23)[C@H](O)[C@@H]1O)OCc1ccc(C#N)cc1F", "note": "[Example 101, [(2R,3S,4R,5R)-5-(4-aminopyrrolo[2,1-f][1,2,4]triazin-7-yl)-5-cyano-3,4-dihydroxy-tetrahydrofuran-2-yl]methyl [(2R)-2-[(4-cyano-2-fluoro-phenyl)methoxy]-3-tetradecoxy-propyl] hydrogen phosphate]", "values": [{"measurement": "CC50", "setting": "MT4 cytotoxicity (CC50); MT4 CC50, Table 4", "result": 5110, "unit": "nM"}, {"measurement": "EC50", "setting": "[1]; read-out: RSV EC50, Table 4", "result": 20, "unit": "nM"}, {"measurement": "EC50", "setting": "SARS-CoV-2", "result": 130, "unit": "nM"}]}, {"smiles": "CCCCCCCC/C=C/CCCCCCCCOC[C@H](COP(=O)(O)OC[C@H]1O[C@@](C#N)(c2ccc3c(N)ncnn23)[C@H](O)[C@@H]1O)OCc1cc(F)cc(C#N)c1", "note": "[Example 126, ((2R,3S,4R,5R)-5-(4-aminopyrrolo[2,1-f][1,2,4]triazin-7-yl)-5-cyano-3,4-dihydroxytetrahydrofuran-2-yl)methyl ((R)-2-((3-cyano-5-fluorobenzyl)oxy)-3-(((E)-octadec-9-en-1-yl)oxy)propyl) hydrogen phosphate]", "values": [{"measurement": "CC50", "setting": "MT4 cytotoxicity (CC50); MT4 CC50, Table 4", "result": 366, "unit": "nM"}, {"measurement": "EC50", "setting": "[1]; read-out: RSV EC50, Table 4", "result": 30, "unit": "nM"}, {"measurement": "EC50", "setting": "SARS-CoV-2", "result": 140, "unit": "nM"}]}, {"smiles": "CC(C)CCCCCCCCCCCCCCOC[C@H](COP(=O)(O)OC[C@H]1O[C@@](C#N)(c2ccc3c(N)ncnn23)[C@H](O)[C@@H]1O)OCc1ccccc1", "note": "[Example 24, ((2R,3S,4R,5R)-5-(4-aminopyrrolo[2,1-f][1,2,4]triazin-7-yl)-5-cyano-3,4-dihydroxytetrahydrofuran-2-yl)methyl ((R)-2-(benzyloxy)-3-((15-methylhexadecyl)oxy)propyl) hydrogen phosphate]", "values": [{"measurement": "CC50", "setting": "MT4 cytotoxicity (CC50); MT4 CC50, Table 2a", "result": 2200, "unit": "nM"}, {"measurement": "EC50", "setting": "[1]; [2]", "result": 42, "unit": "nM"}, {"measurement": "EC50", "setting": "[1]; read-out: RSV EC50, Table 2a", "result": 42, "unit": "nM"}, {"measurement": "EC50", "setting": "SARS-CoV-2", "result": 3320, "unit": "nM"}]}, {"smiles": "CCCCCCCCCCCCCCCCCCOC[C@H](COP(=O)(O)OC[C@H]1O[C@@](C#N)(c2ccc3c(N)ncnn23)[C@H](O)[C@@H]1O)OCc1cccc(F)c1", "note": "[Example 45, ((2R,3S,4R,5R)-5-(4-aminopyrrolo[2,1-f][1,2,4]triazin-7-yl)-5-cyano-3,4-dihydroxytetrahydrofuran-2-yl)methyl ((R)-2-((3-fluorobenzyl)oxy)-3-(octadecyloxy)propyl) hydrogen phosphate]", "values": [{"measurement": "CC50", "setting": "MT4 cytotoxicity (CC50); MT4 CC50, Table 2a", "result": 4420, "unit": "nM"}, {"measurement": "EC50", "setting": "[1]; [2]", "result": 69, "unit": "nM"}, {"measurement": "EC50", "setting": "[1]; read-out: RSV EC50, Table 2a", "result": 69, "unit": "nM"}, {"measurement": "EC50", "setting": "SARS-CoV-2", "result": 311, "unit": "nM"}]}, {"smiles": "CCCCCCCCCCCCCCOCCCOP(=O)(O)OC[C@H]1O[C@@](C#N)(c2ccc3c(N)ncnn23)[C@H](O)[C@@H]1O", "note": "[Example 58, ((2R,3S,4R,5R)-5-(4-Aminopyrrolo[2,1-f][1,2,4]triazin-7-yl)-5-cyano-3,4-dihydroxytetrahydrofuran-2-yl)methyl (3-(tetradecyloxy)propyl) hydrogen phosphate]", "values": [{"measurement": "CC50", "setting": "MT4 cytotoxicity (CC50); MT4 CC50, Table 2a", "result": 13000, "unit": "nM"}, {"measurement": "EC50", "setting": "[1]; [2]", "result": 70, "unit": "nM"}, {"measurement": "EC50", "setting": "[1]; read-out: RSV EC50, Table 2a", "result": 70, "unit": "nM"}, {"measurement": "EC50", "setting": "SARS-CoV-2", "result": 10000, "unit": "nM"}]}]}
